Data: patent publication US4195171A, “Derivatives of an antibiotic XK-62-2 and process for the production thereof” (Abbott Laboratories, priority 1975, dated 1980)
Values after ≈ are worked out from the molar mass of the structure shown.

What was measured:
Test in all cases: Antibacterial spectrum, MIC by agar dilution method
Assay type in all cases: cell-based
[1] = tested on: Providencia sp. 164; settings: pH 7.2, strain produces gentamicin acetyltransferase Type II, read-out: Minimum Inhibitory Concentration
Source text: (§1) XK-62-2, 1-N-[L-(-)-α-hydroxy-γ-aminobutyryl] XK-62-2, Compounds (I-1), (I-2), (II-1) and (II-2) against various Gram-negative and Gram-positive bacteria determined by agar dilution method at pH 7.2.
^9 produces gentamicin acetyltransferase Type II

[2] = tested on: Pseudomonas aeruginosa KY 8511; settings: KY8511, pH 7.2, strain produces gentamicin acetyltransferase Type I, read-out: Minimum Inhibitory Concentration
Source text: as §1
(§2) ^2 produces gentamicin acetyltransferase Type I

[3] = tested on: Escherichia coli KY 8348; settings: KY8348, pH 7.2, strain produces gentamicin acetyltransferase Type I, read-out: Minimum Inhibitory Concentration
Source text: as §1, §2

[4] = tested on: Escherichia coli KY 8320; settings: KY8320, pH 7.2, strain produces neomycinkanamycin phosphotransferase Type I, read-out: Minimum Inhibitory Concentration
Source text: as §1
(§3) ^3 produces neomycinkanamycin phosphotransferase Type I

[5] = tested on: Pseudomonas aeruginosa KY 8518; settings: KY8518, pH 7.2, strain produces neomycinkanamycin phosphotransferase Type I, read-out: Minimum Inhibitory Concentration
Source text: as §1, §3

[6] = tested on: Escherichia coli KY 8349; settings: KY8349, pH 7.2, strain produces neomycinkanamycin phosphotransferase Type I, read-out: Minimum Inhibitory Concentration
Source text: as §1, §3

[7] = tested on: Escherichia coli T-2; settings: T2, pH 7.2, read-out: Minimum Inhibitory Concentration
Source text: as §1

[8] = tested on: Serratia sp T-55; settings: T55, agar dilution, pH 7.2, read-out: Minimum Inhibitory Concentration
Source text: as §1

[9] = tested on: Sarcina lutea ATCC 9341; settings: Micrococcus luteus, ATCC9341, pH 7.2, read-out: Minimum Inhibitory Concentration
Source text: as §1

[10] = tested on: Klebsiella pneumoniae No. 8045; settings: pH 7.2, read-out: Minimum Inhibitory Concentration
Source text: as §1

[11] = tested on: Escherichia coli T-5; settings: T5, agar dilution, pH 7.2, read-out: Minimum Inhibitory Concentration
Source text: as §1

[12] = tested on: Pseudomonas aeruginosa NC-5; settings: NC5, agar dilution, pH 7.2, read-out: Minimum Inhibitory Concentration
Source text: as §1

[13] = tested on: Shigella sonnei ATCC 9290; settings: ATCC9290, pH 7.2, read-out: Minimum Inhibitory Concentration
Source text: as §1

[14] = tested on: Pseudomonas aeruginosa BMH 10; settings: BMH10, pH 7.2, read-out: Minimum Inhibitory Concentration
Source text: as §1

[15] = tested on: Escherichia coli Juhl; settings: agar dilution, pH 7.2, read-out: Minimum Inhibitory Concentration
Source text: as §1

[16] = tested on: Staphylococcus aureus 209 P; settings: pH 7.2, read-out: Minimum Inhibitory Concentration
Source text: as §1

[17] = tested on: Proteus mirabilis 1287; settings: pH 7.2, read-out: Minimum Inhibitory Concentration
Source text: as §1

[18] = tested on: Salmonella typhimurium E-9; settings: Salmonella enterica, pH 7.2, read-out: Minimum Inhibitory Concentration
Source text: as §1

[19] = tested on: Streptococcus faecalis ATCC 10541; settings: Enterococcus faecalis, ATCC10541, pH 7.2, read-out: Minimum Inhibitory Concentration
Source text: as §1

[20] = tested on: bacillus subtilis ATCC 6633; settings: ATCC6633, pH 7.2, read-out: Minimum Inhibitory Concentration
Source text: as §1

[21] = tested on: Pseudomonas aeruginosa E-2; settings: E2, agar dilution, pH 7.2, read-out: Minimum Inhibitory Concentration
Source text: as §1

[22] = tested on: Proteus rettgeri KY 4288; settings: Providencia rettgeri, KY4288, pH 7.2, read-out: Minimum Inhibitory Concentration
Source text: as §1

[23] = tested on: Pseudomonas aeruginosa No. 12; settings: pH 7.2, read-out: Minimum Inhibitory Concentration
Source text: as §1

[24] = tested on: Proteus vulgaris 6897; settings: pH 7.2, read-out: Minimum Inhibitory Concentration
Source text: as §1

[25] = tested on: Staphylococcus aureus Smith; settings: pH 7.2, read-out: Minimum Inhibitory Concentration
Source text: as §1

[26] = tested on: Salmonella enteritidis G-14; settings: Salmonella enterica, agar dilution, pH 7.2, read-out: Minimum Inhibitory Concentration
Source text: as §1

[27] = tested on: Pseudomonas aeruginosa BMH 1; settings: BMH1, pH 7.2, read-out: Minimum Inhibitory Concentration
Source text: as §1

[28] = tested on: Proteus morganii KY 4298; settings: Morganella morganii, KY4298; agar dilution, pH 7.2; read-out: Minimum Inhibitory Concentration
Source text: as §1

[29] = tested on: Pseudomonas aeruginosa Z-445; settings: Z445, pH 7.2, strain produces 6N-acetyltransferase Type III, read-out: Minimum Inhibitory Concentration
Source text: as §1
(§4) ^8 produces 6N-acetyltransferase Type III

[30] = tested on: Pseudomonas aeruginosa KY Z-444; settings: KYZ444, agar dilution, pH 7.2, strain produces 6N-acetyltransferase Type III, read-out: Minimum Inhibitory Concentration
Source text: as §1, §4

[31] = tested on: Serratia marcescens POE 1065; settings: POE1065, agar dilution, pH 7.2, strain produces kanamycin acetyltransferase, read-out: Minimum Inhibitory Concentration
Source text: as §1
(§5) ^1 produces kanamycin acetyltransferase

[32] = tested on: Escherichia coli KY Z-343; settings: KYZ343, pH 7.2, strain produces kanamycin acetyltransferase, read-out: Minimum Inhibitory Concentration
Source text: as §1, §5

[33] = tested on: Escherichia coli KY 8321; settings: KY8321, pH 7.2, strain produces gentamicin adenyltransferase and neomycinkanamycin phosphotransferase Type II, read-out: Minimum Inhibitory Concentration
Source text: as §1
^5 produces gentamicin adenyltransferase and neomycinkanamycin
phosphotransferase Type II

Work on `CNCC1CCC(N)C(OC2C(N)CC(NC(=O)C(O)CN)C(OC3OCC(C)(O)C(NC)C3O)C2O)O1` (racemic) [1-N-(DL-α-hydroxy-β-aminopropionyl) XK-62-2, reference compound] yielded an MIC [1] of 6.25 µg/mL (≈ 11.4 µM), an MIC [2] of 1.56 µg/mL (≈ 2.83 µM) and an MIC [3] of 0.2 µg/mL (≈ 0.363 µM). The MIC [4] was 0.4 µg/mL (≈ 0.726 µM), the MIC [5] was 1.56 µg/mL (≈ 2.83 µM) and the MIC [6] was 0.1 µg/mL (≈ 0.182 µM). For the same compound, the MIC [7] was 0.4 µg/mL (≈ 0.726 µM), the MIC [8] was 1.56 µg/mL (≈ 2.83 µM) and the MIC [9] was 0.4 µg/mL (≈ 0.726 µM). For the same compound, the MIC [10] was 0.78 µg/mL (≈ 1.42 µM), the MIC [11] was 0.78 µg/mL (≈ 1.42 µM) and the MIC [12] was 3.12 µg/mL (≈ 5.67 µM). The MIC [13] was 0.78 µg/mL (≈ 1.42 µM), the MIC [14] was 0.4 µg/mL (≈ 0.726 µM) and the MIC [15] was 0.78 µg/mL (≈ 1.42 µM). For the same compound, the MIC [16] was 0.4 µg/mL (≈ 0.726 µM), the MIC [17] was 12.5 µg/mL (≈ 22.7 µM) and the MIC [18] was 0.4 µg/mL (≈ 0.726 µM). For the same compound, the MIC [19] was 12.5 µg/mL (≈ 22.7 µM), the MIC [20] was 0.2 µg/mL (≈ 0.363 µM) and the MIC [21] was 3.12 µg/mL (≈ 5.67 µM). The MIC [22] was 1.56 µg/mL (≈ 2.83 µM), the MIC [23] was 0.78 µg/mL (≈ 1.42 µM) and the MIC [24] was 12.5 µg/mL (≈ 22.7 µM). It also gave an MIC [25] of 0.2 µg/mL (≈ 0.363 µM), an MIC [26] of 6.25 µg/mL (≈ 11.4 µM) and an MIC [27] of 1.56 µg/mL (≈ 2.83 µM). For the same compound, the MIC [28] was 0.78 µg/mL (≈ 1.42 µM), the MIC [29] was 3.12 µg/mL (≈ 5.67 µM) and the MIC [30] was 1.56 µg/mL (≈ 2.83 µM). It also gave an MIC [31] of 0.78 µg/mL (≈ 1.42 µM), an MIC [32] of 0.2 µg/mL (≈ 0.363 µM) and an MIC [33] of 0.4 µg/mL (≈ 0.726 µM).
